Where two headings read alike, the source gives them in different places.
What was measured:
chicken embryos [1] = conditions: for survival rate: 48 hours post drug application
Protocol: We then administered the compounds to developing chicken embryos to observe any teratogenic effects. […] At 48 hours post drug application both the survival rate and the incidence of defects were analyzed. A range of concentrations was tested to determine the effects and optimal concentration that was not 100% lethal.
Fertilized white leghorn chicken embryos purchased from Henry Stewart Ltd. (Herefordshire, United Kingdom) were maintained in an incubator as described previously. At Hamburger and Hamilton stage 18–20 (E2.5-3)[54] the eggs were windowed and the embryos were prepared for drug exposure. To establish a dose response the drugs were applied once to the embryos and growth was monitored as described previously. In a second set of experiments, filter paper squares were cut 100 μm × 100 μm and soaked in the compound of interest for 10 minutes. While the filter paper squares absorbed the solution, embryonic membranes were removed and the sponge was then placed onto the limb bud. The eggs were sealed with tape and returned to an incubator. The embryos were checked daily for developmental defects and to ensure the filter paper squares remained in place. Control embryos were treated with 100 μL PBS with 0.1% DMSO. Embryos were removed from the eggs and fixed in 5% TCA at 4 degrees for 24 hours. Embryos were then washed in alcian blue for 8 hours, and placed in acid ethanol over night before being dehydrated in 100% ethanol for three one hour treatments. The tissue was then cleared in methyl salicylate. Cartilage was imaged and subsequently measured using a graticule scale and ImageJ. A minimum of 8 embryos was used per drug, per concentration. All animal work was licensed and carried out in accordance with and with approval of UK Home Office and Institutional ethical and welfare guidelines.

[2] = tested on: fli1:EGFP zebrafish embryos; assay: fli1:EGFP zebrafish embryo exposure: survival and intersegmental vessel development; type: in vivo; conditions: for survival: 24 hours after exposure; for relative potency in reducing vessel outgrowth: concentration gradient, within 24 hours of drug exposure
Protocol: We then examined the extent and nature of the anti-angiogenic effects of the compounds using transgenic fli1:EGFP zebrafish embryos. The vasculature of these fish is tagged with EGFP and the transparency of the zebrafish allows for visualization of the forming blood vessels and any effect of anti-cancer drugs on their development over time (Fig. 4). A known anti-angiogenic and teratogenic compound (CPS49) was screened alongside the drugs as a positive control at 10 μg/mL (30 μM), a previously established anti-angiogenic concentration.
fli1:EGFP zebrafish were obtained from the Zebrafish international Resource Centre[29] and maintained in an approved aquarium habitat at 28 °C. At 24 hours post fertilization (hpf) the embryos were checked for GFP expression using a fluorescent microscope and manually dechorionated with forceps, exposed to either a vehicle control, or an anti-angiogenic anti-cancer compound (at 24 hpf) for 24 hours and imaged at 48 hpf. At this point the embryos were anaesthetized in 0.1% tricaine and the length and number of intersegmental vessels (ISV) were quantified as previously described. A minimum of 10 embryos were screened per drug, per concentration, and experiments were performed in triplicate.

Mouse = conditions: cited from earlier work
[3] = human; cited from earlier work
HUVEC cells = assay: Endothelial cell proliferation assay (CCK-8); type: cell-based, Human; conditions: 18 hours exposure, CCK-8 assay, n = 9
Protocol: Anti-angiogenic drugs were screened in a concentration gradient in the HUVEC culture assay. […] Cell proliferation was assessed using a CCK-8 assay (Dojindo). Statistical analysis by two-way Anova. Error represents the standard error of the mean.
HUVEC cells were purchased from ATCC (Manassas, VA) and cultured as previously described. No further authentication was performed. Cells were seeded at 6.5 × 10^4 cells per well in 100 μL of medium per well. Drugs were diluted in prewarmed DMEM. Serial dilutions were performed from 1000–0.1 nM. The cells were left to grow for 18 hours with exposure to vehicle control (DMSO) or drugs. Experiments were done in triplicate each time. Cellular proliferation was assessed using a CCK-8 assay (Dojindo, Rockville, MD). All plates were read at 450 nm.

chicken embryos [4] = conditions: cited from earlier work
Rat = conditions: cited from earlier work; for Systemic exposure (AUC) compared to human exposure: exposure at which defects were produced
Rabbit = conditions: cited from earlier work; for Systemic exposure (AUC) compared to human exposure: exposure at which defects were produced
[5] = tested on: Mouse (strain specific) Rabbit; set-up: method as in PMID 11006136; conditions: cited from earlier work
[6] = 2.5 μg/embryo, global treatment

Compound	survival rate (chicken embryos [1]; 5 μg/embryo, global treatment)	Defects produced in chicken embryos (chicken embryos [1]; Table 1 summary)	survival ([2]; 10 μg/mL)	survival ([2]; 50 μg/mL)	survival ([2]; 100 μg/mL)	Clinical Toxicities [3]	Defects produced (Rat; Rat)	Systemic exposure (AUC) compared to human exposure (Rat; Rat)	survival rate (chicken embryos [1]; 10 μg/embryo, global treatment)	Defects produced in chicken embryos (chicken embryos [1]; in vivo)	defects observed in treated embryos (chicken embryos [1]; in vivo)	relative potency in reducing vessel outgrowth [2]	IC50 (HUVEC cells; Homo sapiens)	Defects produced (Rabbit; Rabbit)	Systemic exposure (AUC) compared to human exposure (Rabbit; Rabbit)	also measured
CNC(=O)c1ccccc1Sc1ccc2c(/C=C/c3ccccn3)n[nH]c2c1 [Axitinib, axitinib]	no embryos survived	Embryolethality increased, limb, growth inhibition, necrosis of YSM	40%	42.12%	38.89%	Cardiotoxicity	–	–	–	–	–	–	–	–	–	survival rate (chicken embryos [1]; [6]): 55.5%; defects observed in treated embryos (chicken embryos [1]; global treatment, surviving embryos): most embryos exhibited necrosis within the surrounding YSM and hemorrhaging; Systemic exposure (AUC) compared to human exposure (Mouse; Mouse/Mice): 10×; Defects produced (Mouse; mouse, in vivo): Increased post implantation loss, cleft palate malformation, variation in skeletal ossification
O=C1c2c(F)c(F)c(F)c(F)c2C(=O)N1c1ccc(F)cc1F [CPS49]	–	Embryolethality, cranial hemorrhaging, micropthalmia, limb defects, spine	50%	–	–	–	–	–	–	–	–	–	–	–	–	blood vessel outgrowth and number of forming vessels ([2]; 10 μg/mL (30 μM), versus vehicle control 0.1% DMSO): significant reduction in both blood vessel outgrowth and the number of forming vessels; IC50 (HUVEC cells): < 50 nM; anti-angiogenic activity in chicken embryo (chicken embryos [4]; 10 μg/embryo): potent anti-angiogenic activity
CO[C@H]1C[C@@H]2CC[C@@H](C)[C@@](O)(O2)C(=O)C(=O)N2CCCC[C@H]2C(=O)O[C@H]([C@H](C)C[C@@H]2CC[C@@H](OCCO)[C@H](OC)C2)CC(=O)[C@H](C)/C=C(\C)[C@@H](O)[C@@H](OC)C(=O)[C@H](C)C[C@H](C)/C=C/C=C/C=C/1C [Everolimus, everolimus]	80%	–	did not impact the survival	did not impact the survival	35.71%	Stomatitis, noninfectious pneumonitis, rash, hyperglycemia and immunosuppression	Increased resorption, pre- and post-implantation loss, decreased numbers of live fetuses, malformation and retarded skeletal development	0.04×	62.5%	Embryolethality increased, limb, spine, microopthalmia, necrosis of YSM	hemorrhaging, spinal cord twisting and necrosis in the YSM	least potent	< 10 nM	Increased resorptions	1.6×	–
Cc1ccc(Nc2nccc(N(C)c3ccc4c(C)n(C)nc4c3)n2)cc1S(N)(=O)=O [Pazopanib, pazopanib]	30%	Embryolethality increased, limb, spine, necrosis of YSM	did not affect the survival	83.33%	50%	Cardiotoxicity	Teratogenic, embryotoxic, fetotoxic & abortifacient. Cardiovascular malformations, incomplete/absent ossification, reduced fetal body weight, pre- and post-implantation embryolethality	0.1×	–	–	malformation of the blood vessels and necrosis in the YSM, and twisted spinal cords	most potent	–	Increased post-implantation loss, abortion, 100% litter loss	0.02×	survival rate (chicken embryos [1]; 1 μg/embryo, global treatment): 16%; survival rate (chicken embryos [1]; [6]): 22%; IC50, endothelial cell proliferation (HUVEC cells): one of the highest IC50s in vitro
CNC(=O)c1cc(Oc2ccc(NC(=O)Nc3ccc(Cl)c(C(F)(F)F)c3)cc2)ccn1 [Sorafenib, sorafenib]	54.5%	–	18.18%	15.38%	No embryos survived	Cardiotoxicity	Increased post implantation loss, resorptions, skeletal retardations, retarded fetal weight	0.008×	47%	Embryolethality increased, limb, growth inhibition, necrosis of YSM	–	most potent	< 50 nM	Increased post implantation loss, resorptions, skeletal retardations, retarded fetal weight	0.008×	–
CCN(CC)CCNC(=O)c1c(C)[nH]c(/C=C2\C(=O)Nc3ccc(F)cc32)c1C [Sunitinib, sunitinib]	72%	–	61.90%	21.05%	0%	Cardiotoxicity	–	5.5×	–	Embryolethality increased, limb, spinal, microopthalmia, growth inhibition, necrosis of YSM	in most embryos limb defects were observed, some also exhibited microopthalmia and spinal cord twisting	most potent	< 10 nM	–	0.3×	Defects produced (Rat; rat, in vivo): Embryolethality increased, fetal skeletal malformations (ribs/vertebrae); Defects produced (Rabbit; rabbit, in vivo): Increased embryolethality, cleft palate malformations
O=C1CCC(N2C(=O)c3ccccc3C2=O)C(=O)N1 (stereo not shown) [Thalidomide, thalidomide]	–	–	–	–	–	Somnolence, constipation, neuropathy, venous thromboembolism and rash/unknown	–	–	–	–	–	–	–	–	–	Defects produced [5]: Increased resorptions, embryotoxicity, eye defects; Systemic exposure (AUC) compared to human exposure [5]: At recommended human dose/Not applicable; Defects produced in chicken embryos (chicken embryos [4]; thalidomide not tested in this paper): Embryolethality, cranial hemorrhaging, micropthalmia, limb defects, spine
COc1cc2c(Nc3ccc(Br)cc3F)ncnc2cc1OCC1CCN(C)CC1 [Vandetanib, vandetanib]	no death occurred	Embryolethality increased, limb, spine, microopthalmia, necrosis of YSM	60%	15.38%	10%	Cardiotoxicity	Increased pre- & post-implantation loss, malformations of heart vessels, skeletal variations, delayed ossification of the skull, vertebrae & sternum.	–	74%	–	limb reductions, micropthalmia, twisted spinal cords, and necrosis and hemorrhaging in the YSM	least potent	–	–	–	–
Nc1cccc2c1C(=O)N(C1CCC(=O)NC1=O)C2=O (stereo not shown) [pomalidomide]	–	–	–	–	–	–	–	–	–	–	–	–	–	–	–	teratogenicity in chicken embryos (chicken embryos [4]; at potent anti-inflammatory doses): not teratogenic
bevacizumab	–	–	–	–	–	–	–	–	–	–	–	–	–	–	–	embryotoxicity in rats (Rat; rat, in vivo): embryotoxicity; placental transfer in rats (Rat; rat, in vivo): dose-dependent placental transfer; teratogenicity in rabbits (Rabbit; rabbit, in vivo, iv): teratogenicity
